In experiment [1] the test system is IL-1β, human whole blood. Description: Whole blood assay for IL-1β production. The conditions noted are these: Table 17, read-out: Whole human blood IC50. Type of experiment: cell-based. As for the experimental part: The whole blood assay is a simple method for measuring the production of IL-1b (or other cytokines) and the activity of potential inhibitors. The complexity of this assay system, with its full complement of lymphoid and inflammatory cell types, spectrum of plasma proteins and red blood cells is an ideal in vitro representation of human in vivo physiologic conditions.
Pyrogen-free syringes (˜30 cc) Pyrogen-free sterile vacuum tubes containing lyophilized Na2EDTA (4.5 mg/10 ml tube) Human whole blood sample (˜30-50 cc) 1.5 ml eppendorf tubes Test compound stock solutions (˜25 mM in DMSO or other solvent) Endotoxin-free sodium chloride solution (0.9%) and HBSS Lipopolysaccharide (Sigma; Cat. # L-3012) stock solution at 1 mg/ml in HBSS
IL-1β ELISA Kit (R & D Systems; Cat # DLB50)
TNFα ELISA Kit (R & D Systems; Cat # DTA50)
Whole Blood Assay Experimental Procedure:
Set incubator or water bath at 30° C. Aliquot 0.25 ml of blood into 1.5 ml eppendorf tubes. Note: be sure to invert the whole blood sample tubes after every two aliquots. Differences in replicates may result if the cells sediment and are not uniformly suspended. Use of a positive displacement pipette will also minimize differences between replicate aliquots.
Prepare drug dilutions in sterile pyrogen-free saline by serial dilution. A dilution series which brackets the apparent Ki for a test compound determined in an ICE inhibition assay is generally used for the primary compound screen.
Add 25 μl test compound dilution or vehicle control and gently mix the sample. Then add 5.0 μl LPS solution (250 ng/ml stocked prepared fresh: 5.0 ng/ml final concentration LPS), and mix again. Incubate the tubes at 30° C. in a water bath for 16-18 hr with occasional mixing. Alternatively, the tubes can be placed in a rotator set at 4 rpm for the same incubation period. This assay should be set up in duplicate or triplicate with the following controls: negative control—no LPS; positive control—no test inhibitor; vehicle control—the highest concentration of DMSO or compound solvent used in the experiment. Additional saline is added to all control tubes to normalize volumes for both control and experimental whole blood test samples
After the incubation period, whole blood samples are centrifuged for 10 minutes at ˜2000 rpm in the microfuge, plasma is transferred to a fresh microfuge tube and centrifuged at 1000×g to pellet residual platelets if necessary. Plasma samples may be stored frozen at −70° C. prior to assay for cytokine levels by ELISA.
We have used R & D Systems (614 McKinley Place N.E. Minneapolis, Minn. 55413) Quantikine kits for measurement of IL-1β and TNF-α. The assays are performed according to the manufacturer's directions.
We have observed IL-1β levels of ˜1-5 ng/ml in positive controls among a range of individuals. A 1:200 dilution of plasma for all samples has been sufficient in our experiments for ELISA results to fall on the linear range of the ELISA standard curves. It may be necessary to optimize standard dilutions if you observe differences in the whole blood assay. Nerad, J. L. et al., J. Leukocyte Biol., 52, pp. 687-692 (1992).

Experiment [2] deals with IL-1β, human peripheral blood mononuclear cells (PBMC). Nature of the experiment: PBMC cell assay: IL-1β assay with human PBMC or enriched adherent mononuclear cells, LPS-stimulated. Type of experiment: cell-based. The following applies: * = values obtained upon reassay. An excerpt: IL-1β Assay with a Mixed Population of Human Peripheral Blood Mononuclear Cells (PBMC) or Enriched Adherent Mononuclear Cells
Processing of pre-IL-1β by ICE can be measured in cell culture using a variety of cell sources. Human PBMC obtained from healthy donors provides a mixed population of lymphocyte subtypes and mononuclear cells that produce a spectrum of interleukins and cytokines in response to many classes of physiological stimulators. Adherent mononuclear cells from PBMC provides an enriched source of normal monocytes for selective studies of cytokine production by activated cells.
An initial dilution series of test compound in DMSO or ethanol is prepared, with a subsequent dilution into RPMI-10% FBS media (containing 2 mM L-glutamine, 10 mM HEPES, 50 U and 50 ug/ml pen/strep) respectively to yield drugs at 4× the final test concentration containing 0.4% DMSO or 0.4% ethanol. The final concentration of DMSO is 0.1% for all drug dilutions. A concentration titration which brackets the apparent Ki for a test compound determined in an ICE inhibition assay is generally used for the primary compound screen.
Generally 5-6 compound dilutions are tested and the cellular component of the assay is performed in duplicate, with duplicate ELISA determinations on each cell culture supernatant.
PBMC Isolation and IL-1 Assay:
Buffy coat cells isolated from one pint human blood (yielding 40-45 ml final volume plasma plus cells) are diluted with media to 80 ml and LeukoPREP separation tubes (Becton Dickinson) are each overlaid with 10 ml of cell suspension. After 15 min centrifugation at 1500-1800×g, the plasma/media layer is aspirated and then the mononuclear cell layer is collected with a Pasteur pipette and transferred to a 15 ml conical centrifuge tube (Corning). Media is added to bring the volume to 15 ml, gently mix the cells by inversion and centrifuge at 300×g for 15 min. Resuspend the PBMC pellet in a small volume of media, count cells and adjust to 6×10^6 cells/ml.
For the cellular assay, 1.0 ml of the cell suspension is added to each well of a 24-well flat bottom tissue culture plate (Corning), 0.5 ml test compound dilution and 0.5 ml LPS solution (Sigma #L-3012; 20 ng/ml solution prepared in complete RPMI media; final LPS concentration 5 ng/ml). The 0.5 ml additions of test compound and LPS are usually sufficient to mix the contents of the wells. Three control mixtures are run per experiment, with either LPS alone, solvent vehicle control, and/or additional media to adjust the final culture volume to 2.0 ml. The cell cultures are incubated for 16-18 hr at 37° C. in the presence of 5% CO2.
At the end of the incubation period, cells are harvested and transferred to 15 ml conical centrifuge tubes. After centrifugation for 10 min at 200×g, supernatants are harvested and transferred to 1.5 ml Eppendorf tubes. It may be noted that the cell pellet may be utilized for a biochemical evaluation of pre-IL-1β and/or mature IL-1β content in cytosol extracts by western blotting or ELISA with pre-IL-1β specific antisera.
Isolation of Adherent Mononuclear Cells:
PBMC are isolated and prepared as described above. Media (1.0 ml) is first added to wells followed by 0.5 ml of the PBMC suspension. After a one hour incubation, plates are gently shaken and nonadherent cells aspirated from each well. Wells are then gently washed three times with 1.0 ml of media and final resuspended in 1.0 ml media. The enrichment for adherent cells generally yields 2.5−3.0×10^5 cells per well. The addition of test compounds, LPS, cell incubation conditions and processing of supernatants proceeds as described above.
We have used Quantikine kits (R&D Systems) for measurement of mature IL-1β. Assays are performed according to the manufacturer's directions. Mature IL-1β levels of about 1-3 ng/ml in both PBMC and adherent mononuclear cell positive controls are observed. […]

Experiment [3] has as its target T1, ICE (Homo sapiens, UniProt P29466).
T1 sequence (P29466 120-297 limits assumed): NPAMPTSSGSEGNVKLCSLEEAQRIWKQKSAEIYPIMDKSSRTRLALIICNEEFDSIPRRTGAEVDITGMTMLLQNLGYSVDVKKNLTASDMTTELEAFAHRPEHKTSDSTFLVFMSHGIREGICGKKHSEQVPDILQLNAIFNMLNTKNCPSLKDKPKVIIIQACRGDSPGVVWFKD
T1 sequence (P29466 317-404 limits assumed): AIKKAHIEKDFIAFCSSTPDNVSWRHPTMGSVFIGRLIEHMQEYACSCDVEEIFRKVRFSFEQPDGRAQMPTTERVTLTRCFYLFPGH
Description: Enzyme assay with UV-visible substrate (visible ICE assay, Succinyl-Tyr-Val-Ala-Asp-pNitroanilide). It is filed as biochemical. The following applies: Table 5. The method in brief:
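Human ICE was preincubated with inhibitor in DMSO and buffer for 15 min at room temperature, then succinyl-Tyr-Val-Ala-Asp-pNA was added. pNA release was followed at 405-603 nm for 20 min at 37° C. Ki and inhibition mode came from fitting rates to standard kinetic equations.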

Like-named read-outs stand apart in the source and are kept apart here.

Consider `COCC(=O)N1C[C@H](NC(=O)c2cc(C)c(O)c(C)c2)C(=O)N(CC(=O)N[C@H]2CC(=O)OC2OCc2ccccc2)c2ccccc21` (mixture of isomers) [Compound 688b, (3S)-2-Oxo-3-(3,5-dimethyl-4-hydroxybenzoyl)amino-5-methoxyacetyl-N-[(2RS,3S)-benzyloxy-5-oxo-tetrahydrofuran-3-yl]-2,3,4,5-tetrahydro-1H-1,5-benzodiazepine-1-acetamide], for which, in experiment [1] (Homo sapiens), the IC50 stood at 1.3 µM.

As to `CCOC1OC(=O)C[C@@H]1NC(=O)[C@@H]1CCCN2C(=O)CC[C@H](NC(=O)c3nccc4ccccc34)C(=O)N12` (mixture of isomers) [Compound 550q, [1S,9S(2RS,3S)]N-(2-Ethoxy-5-oxotetrahydrofuran-3-yl)-6,10-dioxo-9-(isoquinolin-1-oylamino)-1,2,3,4,7,8,9,10-octahydro-6-H-pyridazino[1,2-a][1,2]diazepine-1-carboxamide], the 50% inhibitory concentration (IC50) in experiment [1] is 0.7 µM.

In the case of `Cc1cc(C(=O)N[C@H]2CN(C(=O)CO)c3ccccc3N(CC(=O)N[C@H]3CC(=O)OC3OCc3ccccc3)C2=O)cc(C)c1O` (mixture of isomers) [Compound 690a, (3S)-2-Oxo-3-(3,5-dimethyl-4-hydroxybenzoyl)amino-5-hydroxyacetyl-N-[(2RS,3S)-benzyloxy-5-oxo-tetrahydrofuran-3-yl]-2,3,4,5-tetrahydro-1H-1,5-benzodiazepine-1-acetamide], the half-maximal inhibitory concentration (IC50) in experiment [1] (Homo sapiens) came out at 1.6 µM.

For the molecule `COc1cccc(OC)c1C(=O)C(=O)N[C@H]1CN(C(=O)CO)c2ccccc2N(CC(=O)N[C@H]2CC(=O)OC2OCc2ccccc2)C1=O` (stereo partly drawn) [Compound 677, (3S)-2-Oxo-3-(1,6-dimethoxybenzoylformyl)amino-5-(2-hydroxy)acetyl-N-[(2RS,3S)-benzyloxy-5-oxo-tetrahydrofuran-3-yl]-2,3,4,5-tetrahydro-1H-1,5-benzodiazepine-1-acetamide], the IC50 in experiment [1] (Homo sapiens) came out at 0.61 µM.

For `CN(C)c1cccc(C(=O)N[C@H]2CCC(=O)N3CCC[C@@H](C(=O)N[C@H]4CC(=O)OC4OCc4ccccc4)N3C2=O)c1` (mixture of isomers) [Compound 213g, [1S,9S (2RS,3S)]9-[(3-Dimethylaminobenzoyl)amino]-6,10-dioxo-1,2,3,4,7,8,9,10-octahydro-N-(2-Benzyloxy-5-oxotetrahydrofuran-3-yl)-6H-pyridazino[1,2-a][1,2]diazepine-1-carboxamide], in experiment [1], the IC50 is 2.2 µM.

Turning to `CC(=O)OCC(=O)N1C[C@H](NC(=O)c2ccccc2)C(=O)N(CC(=O)N[C@H]2CC(=O)OC2OCc2ccccc2)c2ccccc21` (mixture of isomers) [Compound 682, (3S)-2-Oxo-3-benzoylamino-5-(2-acetoxy)acetyl-N-[(2RS,3S)-benzyloxy-5-oxo-tetrahydrofuran-3-yl]-2,3,4,5-tetrahydro-1H-1,5-benzodiazepine-1-acetamide], the half-maximal inhibitory concentration (IC50) in experiment [1] (Homo sapiens) worked out at 1.3 µM.

As for `COC(=O)C(=O)N1C[C@H](NC(=O)c2ccccc2)C(=O)N(CC(=O)N[C@H](C=O)CC(=O)O)c2ccccc21` [Compound 605h, (3S)-3-[(3S)-2-oxo-3-benzoylamino-5-methyloxalkyl-2,3,4,5-tetrahydro-1H-1,5-benzodiazepin-1-acetylamino]-4-oxo-butyric acid], the IC50 in experiment [2] (Homo sapiens, PBMC) was greater than 25 µM. Also, the Ki in experiment [3] stood at 0.46 µM.

For the molecule `O=C[C@@H](CCC(=O)O)NC(=O)[C@@H]1CCCN2C(=O)CC[C@H](NC(=O)c3ccccc3)C(=O)N12` [Compound 238e, [4R,(1S,9S)]-4-[9-(Benzoylamino)-6,10-dioxo-1,2,3,4,7,8,9,10-octahydro-6H-pyridazino-[1,2-a][1,2]diazepine-1-carboxamido]-5-oxopentanoic acid], the IC50 in experiment [2] (Homo sapiens, PBMC) turned out to be 4.25 µM. The molecule further came in with an inhibition constant (Ki) in experiment [3] of 0.5 µM.

Consider `O=C[C@H](CC(=O)O)NC(=O)[C@@H]1CCCN2C(=O)CC[C@H](NC(=O)c3cccnc3)C(=O)N12` [Compound 454], for which inhibition in experiment [2] (Homo sapiens, PBMC) was half-maximal at 2.5 µM (IC50). This molecule displayed a Ki in experiment [3] of 0.045 µM.

`O=C[C@H](CC(=O)O)NC(=O)[C@@H]1CCCN2C(=O)CC[C@H](NC(=O)c3ccc(F)c(Cl)c3)C(=O)N12` [Compound 459] had an IC50 in experiment [2] (Homo sapiens, PBMC) of 1.8 µM. Moreover, in experiment [3], the Ki is 0.005 µM.

With `O=C[C@H](CC(=O)O)NC(=O)[C@@H]1CCCN2C(=O)CC[C@H](NC(=O)c3ccc(F)cc3)C(=O)N12` [Compound 463], the 50% inhibitory concentration (IC50) is 2.8 µM in experiment [2] and 2.4 µM in experiment [2] (Homo sapiens, PBMC). The molecule further showed a Ki in experiment [3] of 0.014 µM.

As to `CC(=O)Nc1ccc(C(=O)N[C@H]2CCC(=O)N3CCC[C@@H](C(=O)N[C@H](C=O)CC(=O)O)N3C2=O)cc1NC(C)=O` [Compound 480], half-maximal inhibition in experiment [2] (Homo sapiens, PBMC) (IC50) required 2.3 µM. Further, the inhibitory constant (Ki) in experiment [3] was 0.025 µM.

The term IC50 denotes the point on the concentration scale where inhibition reaches its midpoint. Usually Ki stands for a measure of affinity in units of concentration, obtained from inhibition or displacement. A higher Ki goes with a looser hold on the target.

Source of the values: patent publication US20120165319A1, “INHIBITORS OF INTERLEUKIN-1 BETA CONVERTING ENZYME” (VERTEX PHARMACEUTICALS INCORPORATED, priority 1995, published 2012).
